Experimental findings from patent US20190358242A1, “COMPOSITIONS, KITS, AND METHODS TO INDUCE ACQUIRED CYTORESISTANCE USING STRESS PROTEIN INDUCERS” (FRED HUTCHINSON CANCER RESEARCH CENTER, priority 2017, published 2019) are described below.

In data set [1] the test system is haptoglobin protein. In words: Kidney haptoglobin protein (ELISA). Format: in vivo, CD-1 mice. On the procedure:
(§1) Thirty-two mice were divided into 4 equal groups: (1) control mice; (2) mice treated with 1 mg of N-Mgb injection (as a bolus through the tail vein); (3) mice treated with […] of SnPP (via tail vein); and (4) mice treated with combined N-Mgb 1 SnPP. After either 4 hours (n=16) or 18 hours (n=16), the mice were deeply anesthetized with pentobarbital (50 mg/kg), the abdomen was opened through a midline abdominal incision, and the kidneys were removed. To determine potential effects on extrarenal organs, a liver lobe and the heart were also removed. The tissues were iced and then extracted for protein and RNA (RNeasy Plus Mini; Qiagen, Valencia, Calif.) and subjected to enzyme linked immunosorbent assay (ELISA) and reverse transcriptase polymerase chain reaction (RT-PCR) for HO-1, haptoglobin, and IL-10 protein and messenger RNAs (mRNAs). Zager et al. J Am Soc Nephrol 2014; 25:998-1012; Zager et al. Am J Physiol 2012; 303:F139-48. As an assessment of renal function, control mice and the 18 hour after N-Mgb+SnPP-treated mice had blood urea nitrogen (BUN) and plasma creatinine levels measured. Additionally, transverse 10% formalin fixed kidney sections ([…]) were cut and stained with hematoxylin and eosin (H&E) and periodic acid Schiff (PAS) to further assess potential injury.
(In general: ELISA stands for enzyme-linked immunosorbent assay.)

Details of data set [2]: species or system mice. Conditions: mouse, in vivo, iv.
Data set [3] relates to IL-10 mRNA. In words: Cardiac IL-10 mRNA (RT-PCR). The data set is classed as in vivo, CD-1 mice. On the procedure: as §1
Data set [4] deals with IL-10 mRNA. In words: Liver IL-10 mRNA (RT-PCR). The data set is classed as in vivo, CD-1 mice. On the procedure: as §1
Data set [5] deals with HO-1 mRNA. In words: Cardiac HO-1 mRNA (RT-PCR). The data set is classed as in vivo, CD-1 mice. On the procedure:
as §1

Data set [6] deals with haptoglobin protein. In words: Liver haptoglobin protein (ELISA). Format: in vivo, CD-1 mice. Also on record: unit not given beside the values. On the procedure: as §1
For data set [7], the system named is haptoglobin mRNA. Kind of data set: Liver haptoglobin mRNA (RT-PCR). Format: in vivo, CD-1 mice. On the procedure: as §1
The test system of data set [8] is haptoglobin mRNA. Kind of data set: Cardiac haptoglobin mRNA (RT-PCR). Format: in vivo, CD-1 mice. On the procedure:
as §1

Another data set has as its system maleate model of AKI. In words: Maleate model of AKI (800 mg/Kg), FeS/SnPP and FeS/B12. The data set is classed as in vivo, CD-1 mice. Conditions: IV 18 hrs before 800 mg/Kg maleate; 18 hrs post maleate; 1 mg FeS, 1 μmole SnPP or B12. An excerpt:
Effects of Fe sucrose (FeS)/tin protoporphyrin (SnPP) on AKI severity. Maleate model of AKI. When injected into rodents, maleate undergoes relatively selective proximal tubule cell uptake via organic anion transporters. Once intracellular accumulation occurs, maleate is a preferred substrate for succinyl-CoA:3-oxoacid CoA transferase. […] Ample levels of CoA are essential for fatty acid “activation”, allowing for their subsequent metabolism through the Krebs cycle, yielding ATP. In the absence of this process, proximal tubule ATP depletion and cell injury result. Additionally, maleate conjugates the sulfhydryl group of glutathione (GSH), culminating in GSH depletion and potential oxidant tubular stress.
The following experiment tested whether FeS, SnPP or combined FeS+SnPP can mitigate this form of acute kidney injury (AKI). Twenty seven mice were subjected to 200 μL IV tail injections of one of the following: 1) vehicle (phosphate buffered saline, PBS; n, 10); 2) 1 mg FeS (American Regent (Shirley, N.Y.; n, 3); 3) 1 μmole SnPP (Frontier Scientific, Logan, Utah; n 7), or FeS+SnPP, n, 7). […] The severity of kidney injury was assessed by determining plasma blood urea nitrogen (BUN) and plasma creatinine (PCr) concentrations.
Maleate model of AKI. […] The severity of AKI was determined 18 hrs post maleate injection by terminal BUN and PCr assessments.

For data set [9], the system named is HO-1 mRNA. In words: Renal HO-1 mRNA (RT-PCR, HO-1/GAPDH) after IV myoglobin, SnPP or both. The data set is classed as in vivo, CD-1 mice. Conditions: kidney, 4 hr post IV injection. The text has this:
The Glycerol Model of AKI. This is a widely used model of rhabdomyolysis-induced AKI that has been employed worldwide for 50 years. The model was used to test whether prophylactic interventions confer protection against AKI. Basically, the protocol is as follows: Male CD-1 mice (35-45 grams), obtained from Charles River Laboratories, Wilmington, Mass. were studied. Mice were maintained under standard vivarium conditions and generally housed for 1-3 weeks prior to study. The mice were placed in a cylindrical restraining cage, and then were given a tail vein injection of the test substances (see below) or test substance vehicle. The mice were then returned to their cages. Eighteen hours (hrs) later, the mice were briefly anesthetized by isoflurane inhalation, and given an intramuscular injection of hypertonic (50%) glycerol in a dose of 9 ml/Kg body weight. The dose is divided in two, with half injected into the muscle of each of the hind limbs. The mice were then returned to their cages. Eighteen hrs later, the mice were deeply anesthetized with pentobarbital (50-100 mg/Kg), the abdominal cavity was opened through a midline abdominal incision, a blood sample was obtained from the abdominal vena cava and the kidneys were resected. A kidney cross section was obtained and fixed in formalin for subsequent histologic analysis. The terminal blood samples were analyzed for BUN and creatinine, using commercially available assay kits. The remaining kidney tissue was subjected to cortical dissection, and the cortical tissues were then extracted for protein and RNA. The protein samples were saved for analysis of HO-1 levels, and the RNA samples were subjected to RT-PCR to quantify HO-1 mRNA as well as levels of other stress gene mRNAs (e.g. NGAL, haptoglobin, hemopexin, hepicidin).
Myoglobin+SnPP: To 5 mg of dry myoglobin was added 0.9 ml of PBS+0.1 ml of a stock SnPP solution (50 umole/ml). The resulting final concentrations were 5 mg/ml myoglobin+5 umoles/ml of SnPP. The tail vein was injected with 200 ul of this solution, which equals 1 mg myoglobin+1 umole SnPP. […]
[…] To confirm that the myoglobin+SnPP has a synergistic effect in inducing HO-1 mRNA and HO-1 protein levels, each of the above combinations have been administered alone via tail vein injection. […] For additional information regarding methods, see Zager et al., Am J Physiol Renal Physiol. 2014 Jul. 30. Pii.

Each structure is given as a SMILES string. “And” between values parts separate entries of the source, which are not always exact repeats. Equal entries are not always repeated.

With `C=Cc1c2[n-]c(c1C)/C=c1\[n-]/c(c(C)c1C=C)=C\c1[n-]c(c(CCC(=O)O)c1C)/C=c1\[n-]c(c(C)c1CCC(=O)O)=C2.[Sn+4]` [SnPP, tin protoporphyrin], the “Kidney Haptoglobin protein” value in the data set on haptoglobin protein [1] (4 h after IV injection, N-Mgb 1 mg, SnPP 1 mmol [sic]) is 13.1 ± 1.3. For the same molecule, in the data set on haptoglobin protein [1] (18 h after IV injection), the “Kidney protein Haptoglobin” value amounted to 53.5 ± 17.2. Moreover, the “Plasma LDH, Average” value in data set [2] came out at 4.51 Absorbance U LDH/ml. The “Cardiac mRNA IL-10” value was 0.58 ± 0.16 with IL-10 mRNA [3] (4 h after IV injection) and 0.53 ± 0.10 in the data set on IL-10 mRNA [3] (18 h after IV injection). Moreover, the entries for the “Liver mRNA IL-10” value in the data set with IL-10 mRNA [4] (4 h after IV injection) and in the data set on IL-10 mRNA [4] (18 h after IV injection) were 0.14 ± 0.1 and 0.05 ± 0.01, respectively. For the same molecule, the “Cardiac mRNA HO-1” value in the data set with HO-1 mRNA [5] (4 h after IV injection) is listed as 0.14 ± 0.01; in the data set on HO-1 mRNA [5] (18 h after IV injection) it was 0.09 ± 0.03. The entries for the “Liver protein Haptoglobin” value in the data set with haptoglobin protein [6] (4 h after IV injection) and in the data set on haptoglobin protein [6] (18 h after IV injection) were 130.0 ± 8.9 and 212.0 ± 63.6, respectively. Besides, the “Liver mRNA Haptoglobin” value with haptoglobin mRNA [7] (4 h after IV injection) turned out to be 0.32 ± 0.02; with haptoglobin mRNA [7] (18 h after IV injection), 0.65 ± 0.17. The “Cardiac mRNA Haptoglobin” value is on record as 0.52 ± 0.21 in the data set on haptoglobin mRNA [8] (4 h after IV injection) and 0.59 ± 0.17 with haptoglobin mRNA [8] (18 h after IV injection). Moreover, in the data set with maleate model of AKI, the “Severity of maleate-induced AKI (BUN/PCr), in words” value was “Neither SnPP alone nor FeS alone significantly altered the severity of renal injury”. Further, the “HO-1/GAPDH mRNA, Average” value in the data set on HO-1 mRNA [9] turned out to be 6.94. Besides, the “HO-1/GAPDH mRNA, individual mice” value with HO-1 mRNA [9] is 9.72 and 8.25 and 6.95 and 2.85.
